Key:
Type in all cases: in vivo
[1] = tested on: Diabrotica balteata (Corn Root Worm); test: Example B2: Diabrotica balteata, sprayed maize sprouts, L2 larvae; settings: Diabrotica balteata, 96 h; application rate of 200 ppm; 4 days after infestation; L2 larvae; read-out: effect in at least one of the two categories (mortality or growth inhibition)
Method: Example B2: Diabrotica balteata (Corn Root Worm)
Maize sprouts placed onto an agar layer in 24-well microtiter plates were treated with aqueous test solutions prepared from 10,000 ppm DMSO stock solutions by spraying. After drying, the plates were infested with L2 larvae (6 to 10 per well). The samples were assessed for mortality and growth inhibition in comparison to untreated samples 4 days after infestation. The following compounds gave an effect of at least 80% in at least one of the two categories (mortality or growth inhibition) at an application rate of 200 ppm:
(§1) Insecticidal action against Diabrotica balteata (Corn root worm), Plutella xylostella (Diamond black moth), and Spodoptera littoralis (Egyptian cotton leaf worm). The tests were carried out as described in biological examples B2, B8 and B9, respectively, with the larval feeding/contact activity (mortality only) being reported as Breakpoint (BP80) values in parts per million (i.e. the lowest concentration which gives 80% larval mortality).

[2] = tested on: Bemisia tabaci (Cotton White Fly); test: Example B1: Bemisia tabaci feeding/contact activity, cotton leaf discs; settings: foliar, 144 h, application rate of 200 ppm, 6 days after incubation, adult white flies
Method: Example B1: Bemisia tabaci (Cotton White Fly): Feeding/Contact Activity
Cotton leaf discs were placed on agar in 24-well microtiter plates and sprayed with aqueous test solutions prepared from 10,000 ppm DMSO stock solutions. After drying the leaf discs were infested with adult white flies. The samples were checked for mortality 6 days after incubation.

[3] = tested on: Spodoptera littoralis (Egyptian Cotton Leaf Worm); test: Example B9: Spodoptera littoralis, cotton leaf discs, L1 larvae; settings: Spodoptera littoralis, foliar, 72 h; application rate of 200 ppm; 3 days after infestation; L1 larvae
Method: Example B9: Spodoptera littoralis (Egyptian Cotton Leaf Worm)
Cotton leaf discs were placed onto agar in 24-well microtiter plates and sprayed with aqueous test solutions prepared from 10,000 ppm DMSO stock solutions. After drying the leaf discs were infested with five L1 larvae. The samples were assessed for mortality, anti-feeding effect, and growth inhibition in comparison to untreated samples 3 days after infestation. Control of Spodoptera littoralis by a test sample is given when at least one of the categories mortality, anti-feedant effect, and growth inhibition is higher than the untreated sample.
as §1

[4] = tested on: Plutella xylostella (Diamond Back Moth); test: Example B8: Plutella xylostella, artificial diet, L2 larvae; settings: Plutella xylostella, 120 h; application rate of 200 ppm; 5 days after infestation; L2 larvae; read-out: effect in at least one of the two categories (mortality or growth inhibition)
Method: Example B8: Plutella xylostella (Diamond Back Moth)
24-well microtiter plates with artificial diet were treated with aqueous test solutions prepared from 10,000 ppm DMSO stock solutions by pipetting. After drying, the plates were infested with L2 larvae (10 to 15 per well). The samples were assessed for mortality and growth inhibition in comparison to untreated samples 5 days after infestation. The following compounds gave an effect of at least 80% in at least one of the two categories (mortality or growth inhibition) at an application rate of 200 ppm:
as §1

[5] = tested on: Myzus persicae (Green Peach Aphid); test: Example B5: Myzus persicae feeding/contact activity, sunflower leaf discs; settings: foliar, 144 h, application rate of 200 ppm, 6 days after infestation
Method: Example B5: Myzus persicae (Green Peach Aphid): Feeding/Contact Activity
Sunflower leaf discs were placed onto agar in a 24-well microtiter plate and sprayed with aqueous test solutions prepared from 10,000 ppm DMSO stock solutions. After drying, the leaf discs were infested with an aphid population of mixed ages. The samples were assessed for mortality 6 days after infestation.

[6] = tested on: Myzus persicae (Green Peach Aphid); test: Example B7: Myzus persicae intrinsic activity, sucrose solution through Parafilm; settings: 120 h, test rate of 12 ppm, 5 days after infestation
Source text: Example B7: Myzus persicae (Green Peach Aphid). Intrinsic Activity
Test compounds prepared from 10,000 ppm DMSO stock solutions were applied by pipette into 24-well microtiter plates and mixed with sucrose solution. The plates were closed with a stretched Parafilm. A plastic stencil with 24 holes was placed onto the plate and infested pea seedlings were placed directly on the Parafilm. The infested plate was closed with a gel blotting paper and another plastic stencil and then turned upside down. The samples were assessed for mortality 5 days after infestation.

[7] = tested on: Tetranychus urticae (Two-Spotted Spider Mite); test: Example B11: Tetranychus urticae feeding/contact activity, bean leaf discs; settings: foliar, 192 h
Method: Example B11: Tetranychus urticae (Two-Spotted Spider Mite): Feeding/Contact Activity
Bean leaf discs on agar in 24-well microtiter plates were sprayed with aqueous test solutions prepared from 10,000 ppm DMSO stock solutions. After drying the leaf discs were infested with a mite population of mixed ages. The samples were assessed for mortality on mixed population (mobile stages) 8 days after infestation.

[8] = tested on: Spodoptera littoralis (Egyptian Cotton Leaf Worm); test: Example B10: Spodoptera littoralis systemic activity, lettuce grown on treated agar; settings: 144 h, test rate of 12.5 ppm, 6 days after infestation, read-out: effect in at least one of the three categories (mortality, anti-feeding, or growth inhibition)
Source text: Example B10: Spodoptera littoralis (Egyptian Cotton Leaf Worm) Systemic Activity
Test compounds were applied by pipette from 10,000 ppm DMSO stock solutions into 24-well plates and mixed with agar. Lettuce seeds were placed onto the agar and the multi well plate was closed by another plate which contained also agar. After 7 days the compound was absorbed by the roots and the lettuce grew into the lid plate. The lettuce leaves were then cut off into the lid plate. Spodoptera eggs were pipetted through a plastic stencil onto a humid gel blotting paper and the lid plate was closed with it. The samples were assessed for mortality, anti-feedant effect and growth inhibition in comparison to untreated samples 6 days after infestation. The following compounds gave an effect of at least 80% in at least one of the three categories (mortality, anti-feeding, or growth inhibition) at a test rate of 12.5 ppm: […]

[9] = tested on: Frankliniella occidentalis (Western Flower thrips); test: Example B4: Frankliniella occidentalis feeding/contact activity, sunflower leaf discs; settings: foliar, 168 h, application rate of 200 ppm, 7 days after infestation, population of mixed ages
Method: Example B4: Frankliniella occidentalis (Western Flower thrips): Feeding/Contact Activity
Sunflower leaf discs were placed on agar in 24-well microtiter plates and sprayed with aqueous test solutions prepared from 10,000 DMSO stock solutions. After drying the leaf discs were infested with a Frankliniella population of mixed ages. The samples were assessed for mortality 7 days after infestation.

[10] = tested on: Euschistus heros (Neotropical Brown Stink Bug); test: Example B3: Euschistus heros, sprayed soybean leaves, N2 nymphs; settings: 120 h, application rate of 200 ppm, 5 days after infestation, read-out: effect in at least one of the two categories (mortality or growth inhibition)
Method: Example B3: Euschistus heros (Neotropical Brown Stink Bug)
Soybean leaves on agar in 24-well microtiter plates were sprayed with aqueous test solutions prepared from 10,000 ppm DMSO stock solutions. After drying the leaves were infested with N2 nymphs. The samples were assessed for mortality and growth inhibition in comparison to untreated samples 5 days after infestation. The following compounds gave an effect of at least 80% in at least one of the two categories (mortality or growth inhibition) at an application rate of 200 ppm: […]

[11] = tested on: Myzus persicae (Green Peach Aphid); test: Example B6: Myzus persicae systemic activity, pea seedling roots in test solution; settings: 144 h, test rate of 24 ppm, 6 days after placing seedlings into test solutions
Method: Example B6: Myzus persicae (Green Peach Aphid). Systemic Activity
Roots of pea seedlings infested with an aphid population of mixed ages were placed directly into aqueous test solutions prepared from 10,000 DMSO stock solutions. The samples were assessed for mortality 6 days after placing seedlings into test solutions.

CCSc1nc(C2CC2)sc1-c1nc2cc(C(F)(F)F)ncc2n1C [Example P-14, 2-cyclopropyl-4-ethylsulfanyl-5-[3-methyl-6-(trifluoromethyl)imidazo[4,5-c]pyridin-2-yl]thiazole]
≥ 80%: percent effect (mortality or growth inhibition) at 200 ppm [1] | mortality at 200 ppm [2] | percent control (mortality, anti-feedant effect or growth inhibition) at 200 ppm [3] | percent effect (mortality or growth inhibition) at 200 ppm [4] | mortality at 200 ppm [5] | mortality at 12 ppm [6]

CCS(=O)(=O)c1cc(I)sc1-c1nc2cc(C(F)(F)F)ncc2n1C [Example I-1, 2-(3-ethylsulfonyl-5-iodo-2-thienyl)-3-methyl-6-(trifluoromethyl)imidazo[4,5-c]pyridine]
≥ 80%: mortality at 200 ppm [7] | percent effect (mortality or growth inhibition) at 200 ppm [1] | percent control (mortality, anti-feedant effect or growth inhibition) at 200 ppm [3] | percent effect (mortality or growth inhibition) at 200 ppm [4] | percent effect (mortality, anti-feeding or growth inhibition) at 12.5 ppm [8] | mortality at 200 ppm [5]

CCSc1cc(-c2ccc(Cl)cc2)sc1-c1nc2cc(C(F)(F)F)ncc2n1C [Example P-6, 2-[5-(4-chlorophenyl)-3-ethylsulfanyl-2-thienyl]-3-methyl-6-(trifluoromethyl)imidazo[4,5-c]pyridine]
≥ 80%: mortality at 200 ppm [7] | percent effect (mortality or growth inhibition) at 200 ppm [1] | mortality at 200 ppm [9] | percent effect (mortality or growth inhibition) at 200 ppm [10] | percent control (mortality, anti-feedant effect or growth inhibition) at 200 ppm [3] | percent effect (mortality or growth inhibition) at 200 ppm [4]

CCS(=O)(=O)c1nc(C2CC2)sc1-c1nc2cc(C(F)(F)F)ncc2n1C [Example P-13, 2-cyclopropyl-4-ethylsulfonyl-5-[3-methyl-6-(trifluoromethyl)imidazo[4,5-c]pyridin-2-yl]thiazole]
≥ 80%: percent effect (mortality or growth inhibition) at 200 ppm [1] | mortality at 24 ppm [11] | percent control (mortality, anti-feedant effect or growth inhibition) at 200 ppm [3] | percent effect (mortality or growth inhibition) at 200 ppm [4] | percent effect (mortality, anti-feeding or growth inhibition) at 12.5 ppm [8] | mortality at 200 ppm [5]

CCSc1cc(I)sc1-c1nc2cc(SC(F)(F)F)ncc2n1C [Example I-7, 2-(3-ethylsulfanyl-5-iodo-2-thienyl)-3-methyl-6-(trifluoromethylsulfanyl)imidazo[4,5-c]pyridine]
≥ 80%: percent effect (mortality or growth inhibition) at 200 ppm [1] | percent effect (mortality or growth inhibition) at 200 ppm [10] | percent effect (mortality or growth inhibition) at 200 ppm [4] | percent effect (mortality, anti-feeding or growth inhibition) at 12.5 ppm [8] | mortality at 200 ppm [5] | mortality at 12 ppm [6]

Reference: patent US10125139B2, “Pesticidally active polycyclic derivatives with sulfur substituted five-membered ring heterocycles” (Syngenta Participations AG, priority 2015, dated 2018)
